22 compounds from ChEMBL document CHEMBL4622855, “Secondary metabolites from Isodon ternifolius (D. Don) Kudo and their anticancer activity as DNA topoisomerase IB and Tyrosyl-DNA phosphodiesterase 1 inhibitors” (Bioorg Med Chem, 2020) can be followed below.

Active and inactive are the calls of the source. No cut-off for these calls is given here.

One assay has as its system HCT-116. The assay can be described thus: Cytotoxicity against human HCT116 cells assessed as growth inhibition after 72 hrs by MTT assay. The format is functional. The conditions noted are these: HCT-116, 72 h. A general note: Tetrazolium dyes change colour on reduction, which living cells bring about.
The subject of another assay is A549. The assay can be described thus: Cytotoxicity against human A549 cells assessed as growth inhibition after 72 hrs by MTT assay. The format is functional. The conditions noted are these: A549, 72 h.
Assay [1] has as its target Tyrosyl-DNA phosphodiesterase 1 (Homo sapiens, UniProt Q9NUW8). Briefly: Inhibition of TDP1 (unknown origin) expressed in Escherichia coli BL21 (DE3) using 5'-FAM-AGGATCTAAAAGACTT-BHQ-3' as substrate preincubated for 30 mins followed by substrate addition by fluorescence assay.
For assay [2], the target named is T1, DNA topoisomerase I (Bos taurus) (UniProt F1MN93).
T1 sequence (whole entry): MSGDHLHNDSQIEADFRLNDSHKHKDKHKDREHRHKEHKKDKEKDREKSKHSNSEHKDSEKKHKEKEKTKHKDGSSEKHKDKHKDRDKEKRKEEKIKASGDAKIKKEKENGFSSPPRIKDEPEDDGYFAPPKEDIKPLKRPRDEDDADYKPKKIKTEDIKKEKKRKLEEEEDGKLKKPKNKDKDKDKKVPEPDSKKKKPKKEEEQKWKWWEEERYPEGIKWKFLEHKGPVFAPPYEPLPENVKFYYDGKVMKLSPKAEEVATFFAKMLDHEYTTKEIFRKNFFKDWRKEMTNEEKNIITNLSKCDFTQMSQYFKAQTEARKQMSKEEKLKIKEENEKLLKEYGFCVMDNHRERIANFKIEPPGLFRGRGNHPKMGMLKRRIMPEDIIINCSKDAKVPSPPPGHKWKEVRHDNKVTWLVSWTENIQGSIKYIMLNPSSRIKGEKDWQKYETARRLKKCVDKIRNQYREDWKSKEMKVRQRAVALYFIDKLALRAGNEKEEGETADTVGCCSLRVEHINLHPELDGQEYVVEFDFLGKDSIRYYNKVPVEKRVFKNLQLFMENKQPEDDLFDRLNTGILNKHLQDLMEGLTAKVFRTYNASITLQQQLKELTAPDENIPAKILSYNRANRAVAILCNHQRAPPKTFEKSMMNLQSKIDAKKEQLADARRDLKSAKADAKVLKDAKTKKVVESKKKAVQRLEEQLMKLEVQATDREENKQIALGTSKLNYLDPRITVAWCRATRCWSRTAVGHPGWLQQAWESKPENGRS
Briefly: Inhibition of calf thymus Top1 assessed as reduction in supercoiled pBR322 DNA relaxation at 100 uM measured after 30 mins by agarose gel electrophoresis relative to camptothecin.

For the next assay, the system named is MCF7. Briefly: Cytotoxicity against human MCF7 cells assessed as reduction in cell viability after 72 hrs by MTT assay. The assay is classed as functional. The conditions noted are these: MCF7, 72 h.
Assay [3] addresses T1, DNA topoisomerase I (Bos taurus). The assay can be described thus: Inhibition of calf thymus Top1 assessed as reduction in Top1-supercoiled pBR322 DNA covalent cleavage formation at 25 to 50 uM measured after 30 mins by electrophoretic mobility shift assay.
Assay [4] shares this target. The assay can be described thus: Inhibition of calf thymus Top1-mediated supercoiled pBR322 DNA cleavage assessed as nicked DNA content at 50 uM measured after 30 mins by ethidium bromide staining agarose gel electrophoresis. Details: scale not given: the % may be the effect or the level left.
The target is the same in assay [5]. The assay can be described thus: Inhibition of calf thymus Top1-mediated supercoiled pBR322 DNA cleavage assessed as nicked DNA content at 25 uM measured after 30 mins by ethidium bromide staining agarose gel electrophoresis. Also noted: scale not given: the % may be the effect or the level left.
Assay [6] shares this target. Briefly: Inhibition of calf thymus Top1 assessed as reduction in supercoiled pBR322 DNA relaxation measured after 30 mins by agarose gel electrophoresis.

Chain of Tyrosyl-DNA phosphodiesterase 1 (Q9NUW8 whole entry): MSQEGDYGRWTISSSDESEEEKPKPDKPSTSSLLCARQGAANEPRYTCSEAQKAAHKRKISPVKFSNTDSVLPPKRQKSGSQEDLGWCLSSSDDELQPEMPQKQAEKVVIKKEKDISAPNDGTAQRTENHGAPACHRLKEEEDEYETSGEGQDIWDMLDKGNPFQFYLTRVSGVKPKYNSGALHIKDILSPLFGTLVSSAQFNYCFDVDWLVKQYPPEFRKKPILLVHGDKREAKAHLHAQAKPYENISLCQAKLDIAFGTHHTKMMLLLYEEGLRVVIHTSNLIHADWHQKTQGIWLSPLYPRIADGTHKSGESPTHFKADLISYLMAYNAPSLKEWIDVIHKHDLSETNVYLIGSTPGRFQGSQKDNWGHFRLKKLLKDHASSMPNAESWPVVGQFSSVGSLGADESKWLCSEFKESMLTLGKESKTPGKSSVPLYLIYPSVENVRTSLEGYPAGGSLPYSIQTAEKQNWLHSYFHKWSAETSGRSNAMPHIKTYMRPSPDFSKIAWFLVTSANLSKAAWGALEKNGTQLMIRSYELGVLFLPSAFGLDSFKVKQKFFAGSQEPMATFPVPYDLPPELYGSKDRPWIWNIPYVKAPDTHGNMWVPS

For `CO[C@@H]1C[C@]2(C)[C@H]3CC=C4[C@H]5[C@](C(=O)O)(CC[C@@H](C)[C@@]5(C)O)CC[C@@]4(C)[C@]3(C)CC[C@H]2C(C)(C)CO1`, the GI50 in the assay with HCT-116 came out at 37 µM; with A549, 63 µM; in the assay with MCF7, 31 µM. Also, the IC50 in [1] was above 100 µM. The inhibition in [2] was 30 to 59%.
Take `C[C@@H]1CC[C@]2(C(=O)O)CC[C@]3(C)C(=CC[C@@H]4[C@@]5(C)C[C@@H](O)[C@@H](O)C(C)(C)[C@@H]5CC[C@]43C)[C@@H]2[C@]1(C)O` [EUSCAPHIC ACID]: the results for the GI50 in the assay with HCT-116, in the assay with A549 and in the assay on MCF7 were 22 µM, 43 µM and 41 µM, respectively. Besides, in assay [1], the IC50 was above 100 µM. Besides, the inhibition in assay [2] was above 90%.
On the same counts, the results for `C=C1C(=O)O[C@H]2C3=CC[C@@H]4C(C)(C)[C@H](O)CC[C@@]4(C)[C@@H]3CC[C@@H]12` are 35 µM, 35 µM, 53 µM, above 100 µM and 30 to 59%.
On the same counts, the results for `C[C@H]1[C@H](C)CC[C@]2(C(=O)O)CC[C@]3(C)C(=CC[C@@H]4[C@@]5(C)C[C@@H](O)[C@H](O)C(C)(C)[C@@H]5CC[C@]43C)[C@H]12` [COROSOLIC ACID] are above 100 µM, above 100 µM, 62 µM, above 100 µM and below 29%.
`CC1(C)CC[C@]2(C(=O)O)CC[C@]3(C)C(=CC[C@@H]4[C@@]5(C)C[C@@H](O)[C@@H](O)C(C)(C)[C@@H]5CC[C@]43C)[C@@H]2C1`: the GI50 with HCT-116 was 51 µM; in the assay on A549, above 100 µM; in the assay on MCF7, above 100 µM. In assay [1], this compound returned an IC50 above 100 µM. Also, in [2], the inhibition was in the range of 30 to 59%.
For `CC(=O)O[C@H]1CC[C@]2(C)[C@H]3CC=C4[C@@H]5[C@@H](C)[C@H](C)CC[C@]5(C(=O)O)CC[C@@]4(C)[C@]3(C)CC[C@H]2C1(C)C` [O-ACETYLURSOLIC ACID], the GI50 with HCT-116 came to 21 µM; in the assay on A549 it was 48 µM; with MCF7 it was 6.5 µM. The inhibition in [2] is above 90%.
With `CC(C)c1cc2c(cc1O)[C@]1(C)CCC[C@](C)(C(=O)O)[C@H]1CC2`, the GI50 was determined as 68 µM with HCT-116, 36 µM with A549 and 60 µM in the assay on MCF7. The compound also registered an IC50 in assay [1] above 100 µM. Moreover, in assay [2], the inhibition was 30 to 59%.
Turning to `COc1cc(/C=C/C(=O)O[C@H]2[C@H](O)C[C@]3(C)[C@H]4CC=C5[C@@H]6CC(C)(C)CC[C@]6(C(=O)O)CC[C@@]5(C)[C@]4(C)CC[C@H]3C2(C)C)ccc1O`, the inhibition entry in [3] is “Active”. The figures for the Activity in [4] and in [5] were 10% and 9%, respectively. Further, the GI50 was found to be 22 µM in the assay with HCT-116, 59 µM with A549 and 67 µM with MCF7. The inhibition entry in assay [6] was “Dose-dependent effect”; in [2], above 90%. Also, the IC50 in [1] was above 100 µM.
In the case of `C[C@@H]1CC[C@@]23CC[C@]4(C)[C@@](C=C[C@@H]5[C@@]6(C)CC[C@H](O)C(C)(C)[C@@H]6CC[C@]54C)(OC2=O)C3[C@H]1C` (stereo partly drawn), the GI50 in the assay on HCT-116, in the assay on A549 and in the assay with MCF7 was above 100 µM throughout. Besides, the inhibition in assay [2] is 0%.
In the case of `CC1(C)CC[C@]2(C(=O)O)CC[C@]3(C)C(=CC[C@@H]4[C@@]5(C)CC[C@H](O)C(C)(C)[C@@H]5CC[C@]43C)[C@@H]2C1` [OLEANOLIC_ACID], the GI50 in the assay with HCT-116, with A549 and in the assay on MCF7 was above 100 µM each time. The inhibition in [2] worked out at 0%.
Consider `CC(C)c1cc2c(cc1O)[C@@]1(C)CCC[C@](C)(CO)[C@@H]1CC2`, for which the results for the GI50 with HCT-116, in the assay with A549 and in the assay on MCF7 were 51 µM, 91 µM and 92 µM, respectively. Besides, the IC50 in assay [1] is above 100 µM. In [2], the inhibition was 30 to 59%.
On to `C=C1C(=O)O[C@H]2C3=CC[C@@H]4C(C)(C)C(=O)CC[C@@]4(C)[C@@H]3CC[C@@H]12`, for which the values for the concentration for 50% growth inhibition (GI50) with HCT-116, in the assay on A549 and with MCF7 were 31 µM, 51 µM and 15 µM, respectively. In [1], this compound came in with an IC50 above 100 µM. For the same compound, in assay [2], the inhibition is 60 to 89%.
On the same counts, the results for `CC(C)c1ccc2c(c1O)CC[C@@H]1[C@@](C)(CO)CCC[C@@]21C` are above 100 µM, above 100 µM, above 100 µM, above 100 µM and 0%.
Turning to `CC1(C)CC[C@]2(C(=O)O)CC[C@]3(C)C(=CC[C@@H]4[C@@]5(C)C[C@@H](O)[C@H](O)[C@](C)(CO)[C@@H]5CC[C@]43C)[C@@H]2C1`, the GI50 in the assay with HCT-116 came to 29 µM; in the assay with A549, 22 µM; in the assay on MCF7, 14 µM. The inhibition in assay [2] is 60 to 89%.
Turning to `C=C1C(=O)[C@]23C[C@H]1CC[C@H]2[C@]1(C)CC[C@@H](O)C(C)(C)[C@H]1C[C@@H]3O`, the figures for the GI50 in the assay on HCT-116, in the assay on A549 and in the assay on MCF7 were 2.7 µM, 4.8 µM and 3.5 µM, respectively. This compound also came in with an IC50 in assay [1] above 100 µM. In assay [2], the inhibition fell in the range of 60 to 89%.
For `CC1(C)CC[C@]2(C(=O)O)CC[C@]3(C)C(=CC[C@@H]4[C@@]5(C)C[C@@H](O)[C@@H](O)[C@@](C)(CO)[C@@H]5CC[C@]43C)[C@@H]2C1`, the GI50 in the assay with HCT-116, in the assay with A549 and in the assay with MCF7 was above 100 µM each time. Besides, the inhibition in assay [2] came to 0%.
For the compound `C[C@@H]1CC[C@]2(C(=O)O)CC[C@]3(C)C(=CC[C@@H]4[C@@]5(C)C[C@@H](O)OCC(C)(C)[C@@H]5CC[C@]43C)[C@@H]2[C@]1(C)O`, the GI50 was 23 µM in the assay with HCT-116, above 100 µM in the assay on A549 and above 100 µM in the assay with MCF7. For the same compound, in [1], the IC50 was above 100 µM. In [2], the inhibition is below 29%.
In the case of `CC(=O)O[C@H]1CC[C@]2(C)[C@H]3CC=C4[C@H]5[C@](C(=O)O)(CC[C@@H](C)[C@@]5(C)O)CC[C@@]4(C)[C@]3(C)CC[C@H]2C1(C)C`, the GI50 in the assay with HCT-116, in the assay with A549 and in the assay with MCF7 was above 100 µM each time. In assay [1], this compound returned an IC50 above 100 µM. Also, in assay [2], the inhibition was 0%.
For `CC1(C)CC[C@]2(C(=O)O)CC[C@]3(C)C(=CC[C@@H]4[C@@]5(C)C[C@H](O)[C@H](O)[C@@](C)(COC(C)(C)O)[C@@H]5CC[C@]43C)[C@@H]2C1`, the results for the GI50 in the assay with HCT-116, with A549 and with MCF7 were 55 µM, 37 µM and 11 µM, respectively. The same compound displayed an IC50 in [1] above 100 µM. Besides, in assay [2], the inhibition lay in the range of 60 to 89%.
Consider `CC(C)c1ccc(O)c2c1CC[C@H]1[C@@](C)(C(=O)O)CCC[C@]21C`, for which the results for the GI50 in the assay with HCT-116, in the assay on A549 and with MCF7 were 31 µM, 41 µM and 60 µM, respectively. This compound also had an IC50 in assay [1] above 100 µM. In [2], the inhibition is 30 to 59%.
On the same counts, the results for `C[C@H]1[C@H](C)CC[C@]2(CO)CC[C@]3(C)C(=CC[C@@H]4[C@@]5(C)CC[C@H](O)C(C)(C)[C@@H]5CC[C@]43C)[C@H]12` [UVAOL] are 37 µM, 45 µM, 93 µM, above 100 µM and 30 to 59%.
With `C=C1C(=O)O[C@H]2C3=CC[C@@H]4[C@](C)(CO)CCC[C@@]4(C)[C@@H]3CC[C@@H]12`, the GI50 worked out at 42 µM in the assay with HCT-116, 51 µM with A549 and 40 µM with MCF7. The inhibition in assay [2] lay in the range of 30 to 59%.

In general, GI50 refers to the concentration that inhibits growth by half. The IC50 is the concentration that inhibits the measured activity by half. One may read the inhibition as how much of the control response was suppressed.
